pIC50: −log10 of the molar value. Converted amounts (≈) assume the structure as drawn.
Key:
[1] = Human hepatocyte assay (metabolic stability); assay type: in vitro ADME; conditions: human hepatocytes
Procedure: The metabolic stability of compounds in human hepatocytes was assessed using the following protocol: • 1. Prepare 10 mM stock solutions of compound and control compounds in appropriate solvent (DMSO). Place incubation medium (L-15 Medium) in a 37° C. water bath, and allow warming for at least 15 minutes prior to use. • 2. Add 80 μL of acetonitrile to each well of the 96-well deep well plate (quenching plate). • 3. In a new 96-well plate, dilute the 10 mM test compounds and the control compounds to 100 μM by combining 198 μL of acetonitrile and 2 μL of 10 mM stock. • 4. Remove a vial of cryopreserved (less than −150° C.) human hepatocytes (LiverPool™ 10 Donor Human hepatocytes obtained from Celsis IVT. Chicago, Ill. (Product No. S01205)) from storage, ensuring that vials remain at cryogenic temperatures until thawing process ensues. As quickly as possible, thaw the cells by placing the vial in a 37° C. water bath and gently shaking the vials. Vials should remain in water bath until all ice crystals have dissolved and are no longer visible. After thawing is complete, spray vial with 70% ethanol, transfer the vial to a bio-safety cabinet. • 5. Open the vial and pour the contents into the 50 mL conical tube containing thawing medium. Place the 50 mL conical tube into a centrifuge and spin at 100 g for 10 minutes. […] Using Cellometer® Vision, count cells and determine the viable cell density. Cells with poor viability (<80% viability) are not acceptable for use. […] Transfer 247.5 μL of hepatocytes into each well of a 96-well cell culture plate. Place the plate on Eppendorf Thermomixer Comfort plate shaker to allow the hepatocytes to warm for 10 minutes. • 8. Add 2.5 μL of 100 μM test compound or control compounds into an incubation well containing cells, mix to achieve a homogenous suspension at 0.5 min, which when achieved, will define the 0.5 min time point. At the 0.5 min time, transfer 20 μL of incubated mixture to wells in a “Quenching plate” followed by vortexing. • 9. Incubate the plate at 37° C. at 900 rpm on an Eppendorf Thermomixer Comfort plate shaker. […] Centrifuge the quenching plates for 20 minutes at 4,000 rpm. 4 different compounds are pooled into one cassette and used for LC/MS/MS analysis.
All calculations were carried out using Microsoft Excel. Peak areas were determined from extracted ion chromatograms. In vitro intrinsic clearance (in vitro Clint, in […]) of parent compound was determined by regression analysis of the Ln percent parent disappearance vs. time curve.
V=incubation volume (0.25 mL);
N=number of hepatocytes per well (0.25×10^6 cells).

[2] = target: recombinant human Estrogen Receptor alpha ligand binding domain (ER alpha-LBD (GST)) (Homo sapiens (Human), UniProt P03372); experiment: ERα binding assay (LanthaScreen TR-FRET competition); conditions: TR-FRET, displacement of Fluormone ES2
Sequence of recombinant human Estrogen Receptor alpha ligand binding domain (ER alpha-LBD (GST)) (P03372 307-554): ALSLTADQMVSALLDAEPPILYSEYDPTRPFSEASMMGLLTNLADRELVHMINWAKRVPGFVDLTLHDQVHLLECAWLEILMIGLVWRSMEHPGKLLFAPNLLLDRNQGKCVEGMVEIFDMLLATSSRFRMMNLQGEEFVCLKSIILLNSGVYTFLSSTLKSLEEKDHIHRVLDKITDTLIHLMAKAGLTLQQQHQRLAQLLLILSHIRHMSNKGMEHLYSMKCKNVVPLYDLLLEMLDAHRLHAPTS
How it was run: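 Competition binding to GST-tagged human ERα ligand-binding domain, read by LanthaScreen TR-FRET: Tb-anti-GST antibody labels the receptor and compounds displace a fluorescent tracer, lowering the signal. IC50 was taken from dose-response curve fitting.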

[3] = Human Caco-2 passive permeability A to B Papp; assay type: in vitro ADME; conditions: apical pH 6.5, basolateral pH 7.4, efflux inhibitor cocktail
Procedure: An automated assay was used to determine the passive permeability of compounds in Caco-2 cell monolayers carried out over 2 hours with an apical pH of 6.5 and basolateral pH of 7.4. The Caco-2 AB inhibition assay is carried out with chemical inhibition of the three major efflux transporters ABCB1 (P-gp), ABCG2 (BCRP) and ABCC2 (MRP2) in Caco-2 cells. Incubation of both apical and basolateral is carried out with a cocktail of inhibitors (50 μM quinidine, 20 μM sulfasalazine and 100 μM benzbromarone). Samples were analyzed through LC/MS/MS to estimate the apparent permeability coefficients (Papp) of compounds across Caco-2 cell monolayers and results are quoted in units of ×10^−6 cm/s.

[4] = Thermodynamic solubility (shake-flask); assay type: physicochemical; conditions: aqueous phosphate buffer, 25 °C, pH 7.4, aqueous buffer, thermodynamic from solid, aqueous phosphate buffer pH 7.4, 24 hours
How it was run: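 Shake-flask method starting from 10 mM DMSO stocks, which are dried before use. Residue equilibrated 24 h at 25° C. in aqueous phosphate buffer, pH 7.4. Dissolved fraction separated and quantified by UPLC/MS/MS, with QC samples in each run.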

[5] = target: estrogen receptor (ERα) in CAMA-1 cells (Homo sapiens (Human), UniProt P03372); experiment: Western blotting assay, ER down-regulation in CAMA-1; assay type: cell-based; conditions: 100 nM compound, 48 h, normalised to 100 nM fulvestrant
Sequence of estrogen receptor (ERα) in CAMA-1 cells (P03372 whole entry): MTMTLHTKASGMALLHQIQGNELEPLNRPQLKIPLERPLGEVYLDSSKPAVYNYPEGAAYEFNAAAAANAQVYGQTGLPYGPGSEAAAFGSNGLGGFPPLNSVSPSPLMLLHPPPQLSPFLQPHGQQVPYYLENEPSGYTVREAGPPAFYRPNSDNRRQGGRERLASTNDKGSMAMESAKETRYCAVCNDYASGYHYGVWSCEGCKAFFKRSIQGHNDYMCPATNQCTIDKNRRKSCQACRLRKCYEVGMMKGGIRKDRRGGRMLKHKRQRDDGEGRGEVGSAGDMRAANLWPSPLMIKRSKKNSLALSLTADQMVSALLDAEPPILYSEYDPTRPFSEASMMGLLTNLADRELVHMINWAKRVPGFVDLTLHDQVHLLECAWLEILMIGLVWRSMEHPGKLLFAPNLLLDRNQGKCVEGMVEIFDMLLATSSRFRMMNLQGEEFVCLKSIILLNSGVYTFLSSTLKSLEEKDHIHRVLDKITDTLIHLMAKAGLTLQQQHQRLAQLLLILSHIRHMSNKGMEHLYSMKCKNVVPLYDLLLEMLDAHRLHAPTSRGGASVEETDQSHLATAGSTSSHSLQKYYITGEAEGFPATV
How it was run: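 Cells treated with compounds at 100 nM or 0.1% DMSO vehicle for 48 h at 37 °C, then lysed; ERα detected by western blot with anti-ERα (SP1) rabbit monoclonal. Down-regulation normalised to vehicle (0%) and 100 nM fulvestrant (100%) run on the same gel.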

SMILES	hepatocyte CLint at 1 µM [1] [µL/min/1e6 cells]	pIC50 [2]	Papp at 2 h [3] [nm/s]	solubility at 24 h [4] [µM]	CAMA1 Western % ER deg vs Fv [5] [%]
COc1cc(NC2CN(CCCF)C2)ccc1[C@@H]1c2ccc3[nH]ncc3c2C[C@@H](C)N1CC(F)(F)F [Example 28, 1-(3-fluoropropyl)-N-(3-methoxy-4-((6S,8R)-8-methyl-7-(2,2,2-trifluoroethyl)-6,7,8,9-tetrahydro-3H-pyrazolo[4,3-f]isoquinolin-6-yl)phenyl)azetidin-3-amine]	5	8.24	240	150 (≈ 75.8 µg/mL)	110
COc1cc(NC2CN(CCCF)C2)ccc1[C@@H]1c2ccc3[nH]ncc3c2C[C@@H](C)N1CC1(F)CC1 [Example 6, N-(4-((6S,8R)-7-((1-fluorocyclopropyl)methyl)-8-methyl-6,7,8,9-tetrahydro-3H-pyrazolo[4,3-f]isoquinolin-6-yl)-3-methoxyphenyl)-1-(3-fluoropropyl)azetidin-3-amine]	2	8.06	18	> 947	84
C[C@@H]1Cc2c(ccc3[nH]ncc23)[C@@H](c2ccc(NC3CN(CCCF)C3)cn2)N1CC(F)F [Example 25, 6-((6S,8R)-7-(2,2-difluoroethyl)-8-methyl-6,7,8,9-tetrahydro-3H-pyrazolo[4,3-f]isoquinolin-6-yl)-N-(1-(3-fluoropropyl)azetidin-3-yl)pyridin-3-amine]	5	8.39	59	964 (≈ 442 µg/mL)	96

— patent US10131663B2, “Chemical compounds” (AstraZeneca AB, priority 2016, dated 2018)
